Assay results from PMC7697888, “Comprehensive Set of Tertiary Complex Structures and Palmitic Acid Binding Provide Molecular Insights into Ligand Design for RXR Isoforms” (International Journal of Molecular Sciences, 2020).

Key:
[1] = molecular target: T1, RXRα (Homo sapiens, UniProt P19793); assay: Gal4 hybrid reporter gene assay RXRα; type: cell-based; settings: HEK293T; at 100 µM concentrations and above
T1 construct: pFA-CMV-hRXRα-LBD (NR2B1, UniProt entry: P19793, aa 225–462); expressed in transfected cells; host or cells: HEK293T
T1 sequence (P19793 225-462): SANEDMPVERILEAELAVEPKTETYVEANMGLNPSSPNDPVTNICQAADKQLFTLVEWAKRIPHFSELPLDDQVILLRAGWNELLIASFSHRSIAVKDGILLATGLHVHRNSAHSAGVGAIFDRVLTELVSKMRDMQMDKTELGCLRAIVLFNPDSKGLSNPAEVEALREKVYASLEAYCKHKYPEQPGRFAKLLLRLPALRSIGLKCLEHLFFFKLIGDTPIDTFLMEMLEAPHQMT
Description: (§1) The Gal4 hybrid reporter gene assays for RXRα, RXRβ and RXRγ were performed as described previously using the Gal4-fusion receptor plasmids pFA-CMV-hRXRα-LBD (NR2B1, UniProt entry: P19793, aa 225–462), pFA-CMV-hRXRβ-LBD (NR2B2, UniProt entry: P28702-1, aa 294–533) and pFA-CMV-hRXRγ-LBD (NR2B3, UniProt entry: P48443-1, aa 229–463), which code for the hinge region and LBD of the canonical RXR isoform. pFR-Luc (Stratagene, San Diego, CA, USA) as the reporter plasmid and pRL-SV40 (Promega, Madison, WI, USA) as the internal control were used. HEK293T cells were grown in DMEM high-glucose medium (supplemented with 10% fetal calf serum (FCS), sodium pyruvate (1 mM), penicillin (100 U/mL) and streptomycin (100 μg/mL)) at 37 °C and 5% CO2, and seeded in 96-well plates (3.0 × 10^4 cells/well) on the day before transfection. Right before transfection, medium was changed to Opti-MEM without supplements and cells were transiently transfected using the Lipofectamine LTX reagent (Invitrogen, Carlsbad, CA, USA) according to the manufacturer’s protocol with pFR-Luc (Stratagene), pRL-SV40 (Promega) and the respective pFA-CMV-hRXR-LBD clone. After 5 h of incubation, medium was changed to Opti-MEM (supplemented with penicillin (100 U/mL) and streptomycin (100 μg/mL)) additionally containing 0.1% DMSO and the respective test compounds or 0.1% DMSO alone as the untreated control. After overnight incubation (12–14 h), cells were assayed for luciferase activity using the Dual-Glo luciferase assay system (Promega) according to the manufacturer’s protocol on a Tecan Spark M10 luminometer (Tecan Deutschland GmbH, Crailsheim, Germany). Each sample was tested in at least three biologically independent repeats in duplicates. Data were normalized for transfection efficiency and cell growth by division of firefly luciferase data by Renilla luciferase data and multiplying by 1000 to obtain relative light units (RLUs). Fold activation denotes the mean RLU of test compounds at a respective concentration divided by the mean RLU of untreated control. […]

[2] = test system: RXR; assay: Gal4 hybrid reporter gene assays, competition with bexarotene / antagonist UVI3003 (isoform not specified); type: cell-based, human; settings: bexarotene 0.1 µM or 1 µM; for effect on bexarotene-induced RXR activation, low concentration: fatty acid 10 µM; for effect on bexarotene-induced RXR activation, higher concentration: fatty acid 100 µM, not statistically significant for all fatty acids on all isoforms
Description: as §1

SMILES: CCCCCCCCCCCCCC(=O)O [MA, myristic acid]
- RXRα activation in Gal4 hybrid reporter gene assay [1]: activated
- effect on bexarotene-induced RXR activation, low concentration [2]: tendency to further promote RXR activation
- effect on bexarotene-induced RXR activation, higher concentration [2]: weak competitive behavior

SMILES: CCCCCCCCCCCCCCCCCC(=O)O [SA, stearic acid]
- RXRα activation in Gal4 hybrid reporter gene assay [1]: activated
- effect on bexarotene-induced RXR activation, low concentration [2]: tendency to further promote RXR activation
- effect on bexarotene-induced RXR activation, higher concentration [2]: weak competitive behavior

SMILES: CCCCCCCCCCCCCCCC(=O)O [PA, palmitic acid]
- RXRα activation in Gal4 hybrid reporter gene assay [1]: activated
- effect on bexarotene-induced RXR activation, low concentration [2]: tendency to further promote RXR activation
- effect on bexarotene-induced RXR activation, higher concentration [2]: weak competitive behavior
